The values below come from ChEMBL document CHEMBL1131735, “Structure-activity relationships of substituted 5H-thiazolo[3,2-a]pyrimidines as group 2 metabotropic glutamate receptor antagonists” (Bioorg Med Chem Lett, 1999).

The target in the assay is Metabotropic glutamate receptor 2 (Rattus norvegicus, UniProt P31421). Briefly: Inhibition of 1S,3R-ACPD (10 uM) -stimulated GTP gamma 35S binding on rat Metabotropic glutamate receptor 2 transfected in CHO cells. The class given is cell-based.
Metabotropic glutamate receptor 2, sequence (P31421 whole entry): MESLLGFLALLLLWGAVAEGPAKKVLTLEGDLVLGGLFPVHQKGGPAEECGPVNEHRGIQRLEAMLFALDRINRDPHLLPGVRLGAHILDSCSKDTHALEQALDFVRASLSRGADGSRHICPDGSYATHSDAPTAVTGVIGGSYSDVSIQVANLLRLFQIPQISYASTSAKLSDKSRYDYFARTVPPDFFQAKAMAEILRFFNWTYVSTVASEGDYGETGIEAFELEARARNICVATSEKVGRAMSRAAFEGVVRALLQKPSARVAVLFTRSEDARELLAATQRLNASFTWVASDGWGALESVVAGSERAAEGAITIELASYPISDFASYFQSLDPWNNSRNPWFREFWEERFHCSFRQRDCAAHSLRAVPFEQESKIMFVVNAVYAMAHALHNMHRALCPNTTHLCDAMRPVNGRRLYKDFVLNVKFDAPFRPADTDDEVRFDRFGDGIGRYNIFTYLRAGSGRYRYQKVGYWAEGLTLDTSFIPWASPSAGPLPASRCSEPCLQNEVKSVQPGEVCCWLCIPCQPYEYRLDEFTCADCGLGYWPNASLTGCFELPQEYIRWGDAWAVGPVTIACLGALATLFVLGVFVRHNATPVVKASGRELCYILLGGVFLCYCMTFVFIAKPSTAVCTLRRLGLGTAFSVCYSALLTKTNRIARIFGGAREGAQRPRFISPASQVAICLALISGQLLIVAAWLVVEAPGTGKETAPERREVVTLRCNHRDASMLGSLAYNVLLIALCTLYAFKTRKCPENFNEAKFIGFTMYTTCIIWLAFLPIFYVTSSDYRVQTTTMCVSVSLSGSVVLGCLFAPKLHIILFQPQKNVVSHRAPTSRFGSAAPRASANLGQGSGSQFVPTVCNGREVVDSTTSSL
As for `CC1=C(C(=O)OCCN(C)C)C(c2ccccc2C)N2C=C(c3c(Cl)cccc3Cl)SC2=N1` (stereo unspecified), the Ki stood at 8 µM.

For `COc1cccc(C2C(C(=O)OCCN(C)C)=C(C)N=C3SC(c4c(Cl)cccc4Cl)=CN32)c1` (stereo unspecified), the Ki was 2 µM. Then `COc1ccccc1C1C(C(=O)OCCN(C)C)=C(C(C)C)N=C2SC(c3c(Cl)cccc3Cl)=CN21` (stereo unspecified), with 4 µM. Turning to `COc1ccccc1C1C(C(=O)OCCCN(C)C)=C(C)N=C2SC(c3c(Cl)cccc3Cl)=CN21` (stereo unspecified), the affinity corresponds to a Ki of 2.4 µM.

`COc1ccccc1C1C(C(=O)OCCN(C)C)=C(C)N=C2SC(c3ccc(Cl)cc3Cl)=CN21` (stereo unspecified): the affinity, expressed as Ki, was 1 µM. Then `COc1ccc(C2C(C(=O)OCCN(C)C)=C(C)N=C3SC(c4c(Cl)cccc4Cl)=CN32)cc1` (stereo unspecified), with 7 µM. In the case of `COc1ccccc1C1C(C(=O)OCCN(C)C)=C(C)N=C2SC(c3ccc(Cl)cc3)=CN21` (stereo unspecified) it was 4 µM.

For `COc1ccccc1C1C(C(=O)NCCN(C)C)=C(C)N=C2SC(c3c(Cl)cccc3Cl)=CN21` (stereo unspecified), the Ki is more than 10 µM. In the case of `COc1ccccc1C1C(C(=O)OCCN(C)C)=C(C)N=C2SC(c3c(Cl)cccc3Cl)=CN21` (stereo unspecified) it was 1.5 µM. In the case of `CCC1=C(C(=O)OCCN(C)C)C(c2ccccc2OC)N2C=C(c3c(Cl)cccc3Cl)SC2=N1` (stereo unspecified) it was 1 µM. In the case of `CC1=C(C(=O)OCCN(C)C)C(c2ccccc2Cl)N2C=C(c3c(Cl)cccc3Cl)SC2=N1` (stereo unspecified) it was 2 µM. Compound `COc1ccccc1C1C(C(=O)OCCN(C)C)=C(C(=O)c2ccccc2)N=C2SC(c3c(Cl)cccc3Cl)=CN21` (stereo unspecified) came in with a Ki of more than 10 µM.

For the compound `CC1=C(C(=O)OCCN(C)C)C(c2ccccc2OC(C)C)N2C=C(c3c(Cl)cccc3Cl)SC2=N1` (stereo unspecified), the Ki was determined as 2 µM.

Turning to `CC1=C(C(=O)OCCN(C)C)C(c2ccccc2F)N2C=C(c3c(Cl)cccc3Cl)SC2=N1` (stereo unspecified), the Ki was 3.2 µM.

For the compound `CCOc1ccccc1C1C(C(=O)OCCN(C)C)=C(C)N=C2SC(c3c(Cl)cccc3Cl)=CN21` (stereo unspecified), affinity was put at a Ki of 3 µM. Then `CCOC(=O)C1=C(C)N=C2SC(c3c(Cl)cccc3Cl)=CN2C1c1ccccc1OC` (stereo unspecified), with 4 µM.

A word on the Ki: it is a measure of affinity in units of concentration, obtained from inhibition or displacement.
